Laboratory results reported in patent publication US20140057915A1, “KINASE INHIBITORS” (TOPIVERT PHARMA LIMITED, priority 2012, published 2014).

How the values were obtained:
d-U937 cells = assay: Cell viability: MTT assay; assay type: cell-based, human; settings: 1 μg/mL
Outline: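 MTT reduction (1 h, DMSO solubilisation, A550) measured after compound treatment at 1 or 10 μg/mL of differentiated U937 cells for 4 h (5% FCS RPMI1640) or 24 h (10% FCS). Percentage viability loss computed relative to 0.5% DMSO vehicle, with increases tabulated as negative values.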

GSK3α = GSK3α (Homo sapiens, UniProt P49840); assay: GSK 3α enzyme inhibition (FRET), Method 1; assay type: biochemical; settings: Table 4a1
Outline: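 Compounds are tested at added-solution levels of 4, 0.4, 0.04 or 0.004 μg/mL against GSK3α, with a 2 hr RT preincubation. Kinase reaction with FRET peptide and ATP (8 μM and 40 μM as added) runs 1 hr, and phosphorylation is judged by the protease-sensitive FRET ratio.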

cSrc = cSrc (Homo sapiens, UniProt P12931); assay: c-Src enzyme inhibition (FRET); assay type: biochemical; settings: Table 4a1
Outline: (§1)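 Kinase activity is measured on a dual-labelled synthetic peptide by FRET. ATP is supplied as an 800 μM solution for c-Src and a 60 μM solution for Syk. Compound is tested at four added concentrations, 4 to 0.004 μg/mL.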

[1] = test system: TNFα release, d-U937 cells; assay: LPS-induced TNFα release in d-U937 cells; assay type: cell-based; settings: Homo sapiens, dU937; relative to 10 μg/mL BIRB796; Table 4c1; read-out: LPS Induced Release of Cytokine in d-U937 Cells, TNFα REC50
Outline: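 Sandwich ELISA quantifies cytokine in supernatants after 4 hr LPS challenge (0.1 μg/mL) of PMA-differentiated (100 ng/mL, 48–72 hr) U937 macrophages given compound 2 hr beforehand. REC50 derived from concentration-response curve, inhibition calculated relative to vehicle.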

[2] = test system: IL-8 release, d-U937 cells; assay: LPS-induced IL-8 release in d-U937 cells; assay type: cell-based; settings: Homo sapiens, dU937; Table 4c1; read-out: LPS Induced Release of Cytokine in d-U937 Cells, IL-8 IC50
Outline: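 IL-8 release after a 4 hr challenge with LPS (0.1 μg/mL, E. coli 0111:B4) following a 2 hr compound pretreatment. Cells were human U937 monocytes differentiated to macrophage-type with PMA 100 ng/mL for 48–72 hr. Relative 50% effective concentration derived from concentration–response data.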

Syk = Syk (Homo sapiens, UniProt P43405); assay: Syk enzyme inhibition (FRET); assay type: biochemical; settings: Table 4a1
Outline: as §1

[3] = test system: ICAM-1 expression, BEAS2B cells; assay: Poly I:C-induced ICAM-1 expression in BEAS2B cells; assay type: cell-based; settings: Homo sapiens, BEAS-2B; read-out: Poly IC induced ICAM1 in BEAS2B, IC50
Outline: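 Cell-based ELISA for surface ICAM-1 in human BEAS2B cells 18 h after transfection with the RNA-virus mimic poly I:C (1 μg/mL, with Oligofectamine), compounds added 2 h beforehand. OD450–655 divided by Crystal Violet OD595 per well; percent inhibition relative to vehicle.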

Sequence of cSrc (P12931 whole entry): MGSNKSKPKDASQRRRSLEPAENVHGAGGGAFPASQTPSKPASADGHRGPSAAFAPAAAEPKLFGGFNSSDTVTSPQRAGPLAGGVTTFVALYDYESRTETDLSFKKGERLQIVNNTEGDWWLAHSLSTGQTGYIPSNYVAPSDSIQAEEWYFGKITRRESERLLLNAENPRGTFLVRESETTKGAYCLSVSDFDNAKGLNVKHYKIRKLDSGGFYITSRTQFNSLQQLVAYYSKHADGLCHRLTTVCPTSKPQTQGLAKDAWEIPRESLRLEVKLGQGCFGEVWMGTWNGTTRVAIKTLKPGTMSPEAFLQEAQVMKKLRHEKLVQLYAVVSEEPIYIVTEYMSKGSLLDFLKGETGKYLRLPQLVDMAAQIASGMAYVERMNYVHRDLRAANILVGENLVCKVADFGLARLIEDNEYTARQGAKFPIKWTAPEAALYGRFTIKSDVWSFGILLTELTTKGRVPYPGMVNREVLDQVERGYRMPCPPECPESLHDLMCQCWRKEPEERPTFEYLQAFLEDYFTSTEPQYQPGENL
Sequence of GSK3α (P49840 whole entry): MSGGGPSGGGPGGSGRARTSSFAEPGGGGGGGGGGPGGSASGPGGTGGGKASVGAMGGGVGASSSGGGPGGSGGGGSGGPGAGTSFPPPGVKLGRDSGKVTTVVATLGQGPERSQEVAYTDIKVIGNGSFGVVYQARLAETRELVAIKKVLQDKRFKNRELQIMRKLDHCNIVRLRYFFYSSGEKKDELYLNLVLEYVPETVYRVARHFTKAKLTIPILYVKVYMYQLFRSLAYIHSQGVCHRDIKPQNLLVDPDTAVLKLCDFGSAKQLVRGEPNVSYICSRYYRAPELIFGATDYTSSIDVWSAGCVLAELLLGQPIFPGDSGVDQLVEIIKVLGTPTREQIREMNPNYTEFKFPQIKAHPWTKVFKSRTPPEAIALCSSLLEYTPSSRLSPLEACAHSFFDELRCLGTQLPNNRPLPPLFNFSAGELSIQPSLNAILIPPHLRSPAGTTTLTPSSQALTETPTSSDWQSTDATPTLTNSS

Structure (SMILES)	Cell viability at time point in d-U937 cells, 4 h (d-U937 cells)	Cell viability at time point in d-U937 cells, 24 h (d-U937 cells)	IC50 (GSK3α) [nM]	IC50 (cSrc) [nM]	EC50 [1] [nM]	IC50 [2] [nM]	IC50 (Syk) [nM]	IC50 [3] [nM]
COc1ccc(-n2nc(C3CCCO3)cc2NC(=O)Nc2ccc(Oc3ccnc(Nc4cc(OC)cc(C(=O)NCCN5CCOCC5)c4)n3)c3ccccc23)cc1 (stereo not drawn) [Example 58, 3-methoxy-5-((4-((4-(3-(1-(4-methoxyphenyl)-3-(tetrahydrofuran-2-yl)-1H-pyrazol-5-yl)ureido)naphthalen-1-yl)oxy)pyrimidin-2-yl)amino)-N-(2-morpholinoethyl)benzamide]	−ve (−ve and +ve indicate that the value is below and above respectively, the no significant effect threshold, defined as 30% inhibition at 1 μg/mL at the time point indicated)	−ve (−ve and +ve indicate that the value is below and above respectively, the no significant effect threshold, defined as 30% inhibition at 1 μg/mL at the time point indicated)	8470	< 1	11.7	46.3	296	2.1
COc1cc(Nc2nccc(Oc3ccc(NC(=O)Nc4cc(C(C)C)nn4-c4ccc(OC)nc4)c4ccccc34)n2)cc(C(=O)NCCN2CCOCC2)c1 [Example 10, 3-((4-((4-(3-(3-Isopropyl-1-(6-methoxypyridin-3-yl)-1H-pyrazol-5-yl)ureido)naphthalen-1-yl)oxy)pyrimidin-2-yl)amino)-5-methoxy-N-(2-morpholinoethyl)benzamide]	−ve (−ve and +ve indicate that the value is below and above respectively, the no significant effect threshold, defined as 30% inhibition at 1 μg/mL at the time point indicated)	−ve (−ve and +ve indicate that the value is below and above respectively, the no significant effect threshold, defined as 30% inhibition at 1 μg/mL at the time point indicated)	> 12900	2	1.3	1.8	4	7.3
COc1ccc(-n2nc(C(C)C)cc2NC(=O)Nc2ccc(Oc3ccnc(Nc4cc(C(=O)NCCN5CCOCC5)cc(C(F)(F)F)c4)n3)c3ccccc23)cc1 [Example 47, 3-((4-((4-(3-(3-isopropyl-1-(4-methoxyphenyl)-1H-pyrazol-5-yl)ureido)naphthalen-1-yl)oxy)pyrimidin-2-yl)amino)-N-(2-morpholinoethyl)-5-(trifluoromethyl)benzamide]	−ve (−ve and +ve indicate that the value is below and above respectively, the no significant effect threshold, defined as 30% inhibition at 1 μg/mL at the time point indicated)	−ve (−ve and +ve indicate that the value is below and above respectively, the no significant effect threshold, defined as 30% inhibition at 1 μg/mL at the time point indicated)	2850	5	0.8	1.4	12	3.6
Cc1ccc(-n2nc(C(C)(C)C)cc2NC(=O)Nc2ccc(Oc3ccnc(Nc4cccc(C(=O)N5CCOCC5)c4)n3)c3ccccc23)cc1 [Example 27, 1-(3-(tert-butyl)-1-(p-tolyl)-1H-pyrazol-5-yl)-3-(4-((2-((3-(morpholine-4-carbonyl)phenyl)amino)pyrimidin-4-yl)oxy)naphthalen-1-yl)urea]	−ve (−ve and +ve indicate that the value is below and above respectively, the no significant effect threshold, defined as 30% inhibition at 1 μg/mL at the time point indicated)	−ve (−ve and +ve indicate that the value is below and above respectively, the no significant effect threshold, defined as 30% inhibition at 1 μg/mL at the time point indicated)	311	4	1.4	4.1	39	11.6
COc1ccc(C(=O)NCCN2CCOCC2)cc1Nc1nccc(Oc2ccc(NC(=O)Nc3cc(C(C)(C)C)nn3-c3ccc(C)cc3)c3ccccc23)n1 [Example 31, 3-((4-((4-(3-(3-(tert-butyl)-1-(p-tolyl)-1H-pyrazol-5-yl)ureido)naphthalen-1-yl)oxy)pyrimidin-2-yl)amino)-4-methoxy-N-(2-morpholinoethyl)benzamide]	−ve (−ve and +ve indicate that the value is below and above respectively, the no significant effect threshold, defined as 30% inhibition at 1 μg/mL at the time point indicated)	−ve (−ve and +ve indicate that the value is below and above respectively, the no significant effect threshold, defined as 30% inhibition at 1 μg/mL at the time point indicated)	9630	3	2.8	7.1	51	12
COc1ccc(-n2nc(C3CCOC3)cc2NC(=O)Nc2ccc(Oc3ccnc(Nc4cc(OC)cc(C(=O)NCCN5CCOCC5)c4)n3)c3ccccc23)cc1 (stereo not drawn) [Example 59, 3-methoxy-5-((4-((4-(3-(1-(4-methoxyphenyl)-3-(tetrahydrofuran-3-yl)-1H-pyrazol-5-yl)ureido)naphthalen-1-yl)oxy)pyrimidin-2-yl)amino)-N-(2-morpholinoethyl)benzamide]	−ve (−ve and +ve indicate that the value is below and above respectively, the no significant effect threshold, defined as 30% inhibition at 1 μg/mL at the time point indicated)	−ve (−ve and +ve indicate that the value is below and above respectively, the no significant effect threshold, defined as 30% inhibition at 1 μg/mL at the time point indicated)	1190	< 1	2	6.8	12	39.7
COc1ccc(-n2nc(C(C)C)cc2NC(=O)Nc2ccc(Oc3ccnc(Nc4cc(OC)cc(C(=O)NCCN5CCOCC5)c4)c3)c3ccccc23)cc1 [Example 15, 3-((4-((4-(3-(3-isopropyl-1-(4-methoxyphenyl)-1H-pyrazol-5-yl)ureido)naphthalen-1-yl)oxy)pyridin-2-yl)amino)-5-methoxy-N-(2-morpholinoethyl)benzamide]	−ve (−ve and +ve indicate that the value is below and above respectively, the no significant effect threshold, defined as 30% inhibition at 1 μg/mL at the time point indicated)	−ve (−ve and +ve indicate that the value is below and above respectively, the no significant effect threshold, defined as 30% inhibition at 1 μg/mL at the time point indicated)	3180	4	0.4	1.6	16	26.2
COc1cc(Nc2cc(Oc3ccc(NC(=O)Nc4cc(C(C)(C)C)nn4-c4ccc(C)cc4)c4ccccc34)ncn2)cc(C(=O)NCCN2CCOCC2)c1 [Example 72]	−ve (−ve and +ve indicate that the value is below and above respectively, the no significant effect threshold, defined as 30% inhibition at 1 μg/mL at the time point indicated)	−ve (−ve and +ve indicate that the value is below and above respectively, the no significant effect threshold, defined as 30% inhibition at 1 μg/mL at the time point indicated)	> 13000	4	1.2	2.1	202	2.6
Cc1csc(-n2nc(C(C)(C)C)cc2NC(=O)Nc2ccc(Oc3ccnc(Nc4cccc(C(=O)NCCN5CCOCC5)c4)n3)c3ccccc23)c1 [Example 24, 3-((4-((4-(3-(3-(tert-butyl)-1-(4-methylthiophen-2-yl)-1H-pyrazol-5-yl)ureido)naphthalen-1-yl)oxy)pyrimidin-2-yl)amino)-N-(2-morpholinoethyl)benzamide]	−ve (−ve and +ve indicate that the value is below and above respectively, the no significant effect threshold, defined as 30% inhibition at 1 μg/mL at the time point indicated)	−ve (−ve and +ve indicate that the value is below and above respectively, the no significant effect threshold, defined as 30% inhibition at 1 μg/mL at the time point indicated)	207	1	1.4	0.3	14	1
